Data published in patent publication US20260216362A1, “ANTI-BDCA2 ANTIBODY-DRUG CONJUGATE AND USE THEREOF” (DUALITY BIOLOGICS (SHANGHAI) CO., LTD., priority 2022, published 2026).

Assays:
[1] = system: cynomolgus monkey whole blood stimulated with CpG-A; test: TNF-α after in vitro CpG-A stimulation of whole blood of dosed cynomolgus monkeys; type: in vivo; conditions: 10 mg/kg i.v.; CpGA-stimulated whole blood
Method: (§1) Cytokine expression was detected by whole blood stimulation in vitro.
(§2) The cells were cultured at 37° C. for 18 h, and the supernatant was collected. The TNF-α and IFN-α concentration levels in the supernatant were detected using an ELISA kit.
(§3) TNF-α concentration assay was performed using a R&D Primate TNF-α DuoSet ELISA kit (Cat. No. DY1070). 50 μL of serially diluted cytokine standard was added to each standard well, 50 μL of test sample was added to each sample well, and 50 μL of PBS was added to each blank control well. The cells were incubated at 37° C. for 2 h. The plate was washed 3 times: the liquid in each well was removed, and 300 μL of 1× PBST buffer working solution was added to each well; and after 1 minute of residence, the liquid in each well was discarded. 100 μL of detection antibody working solution was added to each well, and the cells were incubated at 37° C. for 1 h. […] The reading at wavelength 450 nm was detected using a Molecular device spectra max plus384 instrument within 10 min after the reaction was stopped.
(§4) Evaluation criteria in FIGS. 12-13: the average expression level changes of IFNα/TNFα were evaluated after in vitro stimulation of the whole blood with CpGA at 200 μg/mL on days 0-33 after administration. […]

[2] = system: cynomolgus monkey whole blood stimulated with CpG-A; test: IFN-α after in vitro CpG-A stimulation of whole blood of dosed cynomolgus monkeys; type: in vivo; conditions: 10 mg/kg i.v.; CpGA-stimulated whole blood
Method: as §1, §2
as §3, with “IFN-α concentration” for “TNF-α concentration”, “a Mabtech Human IFN-α (pan specific)” for “a R&D Primate TNF-α DuoSet”, “No. 3425-1H-20).” for “No. DY1070).”, “3 times,” for “3 times:”, “300 µL” for “300 μL”
as §4

“BIIB059: reference antibody specifically binding to BDCA2, sequence derived from U.S. Pat. No. 9,902,775B2; SEQ ID NO: 25 and 26 [reference compound]” was tested, and the “TNFα expression level compared to the blank control group” value [1] was “no significant change” and the “IFN-α expression level compared to the blank control group” value [2] was “reduced”.
